Twelve molecules from patent publication US20090131470A1, “PYRAZOLE-SUBSTITUTED BENZIMIDAZOLE DERIVATIVES FOR USE IN THE TREATMENT OF CANCER AND AUTOIMMUNE DISORDERS” (priority 2005, published 2009) can be followed below.

Bounds are passed on as bounds.

Holding throughout (assay type): biochemical
One test deals with T1, Akt1 (Homo sapiens, UniProt P31749).
T1 construct: purchased Upstate
Description: Akt1 kinase assay (Histone H1 substrate). As to conditions: 200 μM ATP, read-out: AKT-1 IC50. The procedure:
(§1) Assays for the cyclin dependent kinase activity were carried out by monitoring the phosphorylation of a synthetic peptide, HATTPKKKRK. The assay mixture containing the inhibitor and CDK-2 enzyme, complexed with cyclin A (0.4 U/ml) was mixed together in a microtiter plate in a final volume of 50 μl and incubated for 40 min at 30° C. The assay mixture contained 0.1 mM unlabeled ATP, 0.01 μCi/μl ^33P-γ-ATP, 0.03 mM peptide, 0.1 mg/ml BSA, 7.5 mM magnesium acetate, 50 mM HEPES-NaOH, pH 7.5. The reaction was stopped by adding 50 μl of 50 mM phosphoric acid. 90 μl of the mixture were transferred to a pre-wetted 96-well Multiscreen MAPHNOB filtration plate (Millipore) and filtered on a vacuum manifold. The filter plate was washed with 3 successive additions of 200 μl 50 mM phosphoric acid and then with 100 μl methanol. The filtration plate was dried for 10 min at 65° C., scintillant added and phosphorylated peptide quantified in a scintillation counter (Trilux, PerkinElmer)
Protocol for the Akt assay is the same for CDK2 except that, 3 nM Akt1 (Upstate) was used with Histone H1 as substrate with a final ATP concentration of 200 μM. The reaction was incubated at 30° C. for 40 minutes.

The next test has as its target T2, PDK1 (Homo sapiens, UniProt O15530).
T2 sequence (O15530 1-556): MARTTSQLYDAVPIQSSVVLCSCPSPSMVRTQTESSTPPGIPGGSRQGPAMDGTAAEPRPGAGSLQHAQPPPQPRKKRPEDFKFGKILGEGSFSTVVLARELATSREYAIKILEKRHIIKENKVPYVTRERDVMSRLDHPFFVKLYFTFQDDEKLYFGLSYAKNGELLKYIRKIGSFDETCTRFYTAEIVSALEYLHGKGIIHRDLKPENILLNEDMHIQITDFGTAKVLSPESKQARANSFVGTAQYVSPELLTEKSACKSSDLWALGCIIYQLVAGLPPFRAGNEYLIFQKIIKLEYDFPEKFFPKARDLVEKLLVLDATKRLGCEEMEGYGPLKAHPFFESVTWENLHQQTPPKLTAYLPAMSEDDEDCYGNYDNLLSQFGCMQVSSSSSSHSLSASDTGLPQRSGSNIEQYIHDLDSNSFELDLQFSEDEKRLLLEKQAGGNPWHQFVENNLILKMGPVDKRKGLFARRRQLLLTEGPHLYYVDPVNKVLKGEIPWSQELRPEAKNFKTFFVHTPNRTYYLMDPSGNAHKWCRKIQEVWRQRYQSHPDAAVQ
Description: PDK1 kinase assay (33P peptide phosphorylation). Particulars: 0.01 mM ATP, 60 min at 30° C.; read-out: PDK-1 IC50. The procedure: (§2) The assay mixture containing the inhibitor and PDK1 enzyme was mixed together in a microtiter plate in a final volume of 50 μl and incubated for 60 min at 30° C. The assay mixture contained 0.01 mM unlabeled ATP, 0.01 μCi/μl ^33P-γ-ATP, 0.075 mM peptide, 0.1 mg/ml BSA, 7.5 mM magnesium acetate, 0.05M Tris.HCl, pH 7.5, 0.5% 2-mercaptoethanol. The reaction was stopped by adding 50 μl of 50 mM phosphoric acid. 90 μl of the mixture were transferred to a pre-wetted 96-well Multiscreen MAPHNOB filtration plate (Millipore) and filtered on a vacuum manifold. The filter plate was washed with 3 successive additions of 200 μl 50 mM phosphoric acid and then with 100 μl methanol. The filtration plate was dried for 10 min at 65° C., scintillant added and phosphorylated peptide quantified in a scintillation counter (Trilux, PerkinElmer)

The next test deals with T3, GST-Chk1 enzyme (Homo sapiens, UniProt O14757).
T3 sequence (O14757 1-476): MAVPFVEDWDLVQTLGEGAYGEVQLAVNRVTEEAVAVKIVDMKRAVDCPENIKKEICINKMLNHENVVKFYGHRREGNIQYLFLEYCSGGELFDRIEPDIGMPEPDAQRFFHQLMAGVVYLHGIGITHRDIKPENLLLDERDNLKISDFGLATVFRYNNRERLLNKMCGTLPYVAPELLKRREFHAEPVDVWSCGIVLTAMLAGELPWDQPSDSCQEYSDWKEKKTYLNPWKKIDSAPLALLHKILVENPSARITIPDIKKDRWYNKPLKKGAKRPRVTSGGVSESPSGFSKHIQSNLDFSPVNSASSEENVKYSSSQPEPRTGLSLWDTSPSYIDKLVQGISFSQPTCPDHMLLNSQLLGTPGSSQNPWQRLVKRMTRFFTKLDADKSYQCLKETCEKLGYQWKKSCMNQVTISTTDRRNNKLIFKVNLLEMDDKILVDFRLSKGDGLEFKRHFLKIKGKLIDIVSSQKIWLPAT
Description: Chk1 kinase assay (33P Chktide phosphorylation). Particulars: 0.01 mM ATP, 40 minutes at 30° C.; read-out: CHK-1 IC50. How it is done:
as §2, with “Chk1” for “PDK1”, “40 minutes” for “60 min”, “The assay mixture contained 0.01 mM unlabeled ATP, 0.01 μCi/μl ^33P-γ-ATP, 0.075 mM peptide, 0.1 mg/ml BSA, 7.5 mM magnesium acetate, 0.05M Tris.HCl, pH 7.5, 0.5% 2-mercaptoethanol.” left out, “was” for “were”, “multi-screen” for “Multiscreen”

The next test deals with T4, PKA (Homo sapiens, UniProt P17612).
T4 construct: purchased Upstate
Description: PKA kinase assay (Kemptide substrate). As to conditions: 100 μM ATP. The procedure:
as §1, with “The” for “Assays for the cyclin dependent kinase activity were carried out by monitoring the phosphorylation of a synthetic peptide, HATTPKKKRK. The”
The PKA assay was incubated at 30° C. for 30 minutes.

For test [1], the target named is CDK-2 enzyme, complexed with cyclin A (Homo sapiens, UniProt P24941). The experiment in a line: CDK2 kinase assay (33P peptide phosphorylation). Particulars: 0.1 mM ATP, cyclin A complex. The procedure: as §1, with “The” for “Assays for the cyclin dependent kinase activity were carried out by monitoring the phosphorylation of a synthetic peptide, HATTPKKKRK. The”

T1 sequence (P31749 whole entry, species assumed): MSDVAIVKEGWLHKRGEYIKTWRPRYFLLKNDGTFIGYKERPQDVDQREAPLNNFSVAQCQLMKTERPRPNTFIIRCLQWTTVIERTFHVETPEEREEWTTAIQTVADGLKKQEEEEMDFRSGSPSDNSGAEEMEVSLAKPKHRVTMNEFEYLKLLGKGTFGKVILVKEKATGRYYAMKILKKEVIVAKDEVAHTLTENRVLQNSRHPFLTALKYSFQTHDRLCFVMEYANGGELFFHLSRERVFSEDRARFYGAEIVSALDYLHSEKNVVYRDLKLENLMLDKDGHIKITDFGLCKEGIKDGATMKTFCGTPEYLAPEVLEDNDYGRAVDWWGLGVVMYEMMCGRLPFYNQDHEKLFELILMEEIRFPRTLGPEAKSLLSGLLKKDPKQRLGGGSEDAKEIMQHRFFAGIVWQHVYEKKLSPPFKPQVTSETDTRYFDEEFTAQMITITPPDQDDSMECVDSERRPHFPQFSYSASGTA

Broadly, the IC50 is the point on the concentration scale where inhibition reaches its midpoint. In the case of `Cc1[nH]nc(-c2nc3ccc(C(=O)NCC(O)c4ccccc4)cc3[nH]2)c1C(=O)NC1CCNCC1` (stereo not drawn) [Example 35], the IC50 at Akt1 amounted to 10600 nM; at PDK1, 57 nM; at GST-Chk1 enzyme, 37 nM; against PKA, 5310 nM; in test [1], 13800 nM.

With `Cc1[nH]nc(-c2nc3ccc(C(C)(C)C)cc3[nH]2)c1C(=O)NC1CCNCC1` [Example 37], the IC50 at Akt1 is > 10000 nM; on PDK1, 49 nM; on GST-Chk1 enzyme, 6 nM; against PKA it was 4950 nM; in test [1], 1850 nM.

On to `Cc1[nH]nc(-c2nc3ccc(C(F)(F)F)cc3[nH]2)c1C(=O)NC1CCNCC1` [Example 38], for which the IC50 was > 10000 nM at Akt1; 32 nM on PDK1; 58 nM at GST-Chk1 enzyme; 16900 nM against PKA; 19300 nM in test [1].

As for `Cc1[nH]nc(-c2nc3ccc(C(F)(F)F)cc3[nH]2)c1C(=O)NCC1CCCNC1` (stereo not drawn) [Example 39], the half-maximal inhibitory concentration (IC50) at Akt1 was > 10000 nM; on PDK1, 86 nM; on GST-Chk1 enzyme, 49 nM; against PKA it was > 50000 nM; in test [1] it was > 50000 nM.

On to `Cc1[nH]nc(-c2nc3ccc(C4CC4)cc3[nH]2)c1C(=O)NC1CCNCC1` [Example 40], for which the half-inhibitory concentration (IC50) at Akt1 is > 10000 nM; at PDK1, 20 nM; on GST-Chk1 enzyme, 22 nM; at PKA, 2860 nM; in test [1] it was 23700 nM.

With `Cc1[nH]nc(-c2nc3ccc(C(C)(C)C)cc3[nH]2)c1C(=O)N[C@@H]1CN2CCC1CC2` [Example 41], the IC50 on Akt1 is > 10000 nM; at PDK1 it was 52 nM; at GST-Chk1 enzyme, 25 nM; against PKA, 2120 nM; in test [1], > 50000 nM.

With `Cc1[nH]nc(-c2nc3ccc(C(C)C)cc3[nH]2)c1C(=O)NC1CN2CCC1CC2` (stereo not drawn) [Example 42], the IC50 at Akt1 was > 10000 nM; on PDK1, 45 nM; on GST-Chk1 enzyme, 50 nM; against PKA, 3820 nM; in test [1], 9670 nM.

In the case of `Cc1[nH]nc(-c2nc3ccc(C(C)C)cc3[nH]2)c1C(=O)N[C@@H]1CN2CCC1CC2` [Example 43], the IC50 on Akt1 was > 10000 nM; at PDK1 it was 22 nM; on GST-Chk1 enzyme, 26 nM; against PKA, 2020 nM; in test [1], 14700 nM.

Regarding `Cc1[nH]nc(-c2nc3cc(Cl)c(C(C)C)cc3[nH]2)c1C(=O)NC1CN2CCC1CC2` (stereo not drawn) [Example 44], the IC50 on Akt1 is > 10000 nM; at PDK1, 140 nM; on GST-Chk1 enzyme it was 91 nM; against PKA, 12000 nM; in test [1], > 50000 nM.

On to `Cc1[nH]nc(-c2nc3cc(Cl)c(C(C)C)cc3[nH]2)c1C(=O)NC1CCNCC1` [Example 45], for which the IC50 at Akt1 is > 10000 nM; at PDK1 it was 13 nM; on GST-Chk1 enzyme, 13 nM; against PKA it was 5130 nM; in test [1], 11900 nM.

As for `Cc1[nH]nc(-c2nc3ccc(C(C)C)cc3[nH]2)c1C(=O)NC1CCN(C)CC1` [Example 46], the IC50 was > 10000 nM at Akt1; 36 nM at PDK1; 14 nM at GST-Chk1 enzyme; 3800 nM at PKA; 24200 nM in test [1].

As for `Cc1[nH]nc(-c2nc3ccc(C4CC4)cc3[nH]2)c1C(=O)NC1CN2CCC1CC2` (stereo not drawn) [Example 47], the IC50 was > 10000 nM at Akt1; 106 nM on PDK1; 85 nM on GST-Chk1 enzyme; 3820 nM at PKA; > 50000 nM in test [1].
